Measured values from PMC9603901, “Therapeutic Potential of Antimicrobial Peptide PN5 against Multidrug-Resistant E. coli and Anti-Inflammatory Activity in a Septic Mouse Model” (Microbiology Spectrum, 2022).
≈ marks a conversion by molar mass, not a printed value. Like-named read-outs stand apart in the source and are kept apart here. One block for each compound: values may come before it. Where no end group is shown, it is not given here.

Experiments:
[1] = test system: MDR E. coli ASEC 4; design: method as in Asan hospital; key to susceptibility category: S: susceptible; R: resistant; I: intermediate; conditions: ref Asan hospital, cited from earlier work; for MIC: ASEC 4 (ESBL), resistance information of clinical isolate; for susceptibility category: ASEC 4
[2] = test system: MDR E. coli ASEC 10; design: method as in Asan hospital; key to susceptibility category: S: susceptible; R: resistant; I: intermediate; conditions: ref Asan hospital, cited from earlier work; for MIC: ASEC 10 (ESBL), resistance information of clinical isolate; for susceptibility category: ASEC 10
[3] = test system: MDR E. coli ASEC 1; design: method as in Asan hospital; key to susceptibility category: S: susceptible; R: resistant; I: intermediate; conditions: ref Asan hospital, cited from earlier work; for MIC: ASEC 1 (carbapenemase NDM-1), resistance information of clinical isolate; for susceptibility category: ASEC 1
[4] = test system: MDR E. coli ASEC 3; design: method as in Asan hospital; key to susceptibility category: S: susceptible; R: resistant; I: intermediate; conditions: ref Asan hospital, cited from earlier work; for MIC: ASEC 3 (NDM-5), resistance information of clinical isolate; for susceptibility category: ASEC 3
[5] = test system: MDR E. coli ASEC 11; test: microbe, parasite or virus in culture; assay type: cell-based, Escherichia coli; conditions: microdilution, LB, 18 to 24 h, 37°C, three independent experiments
Method: (§1) Bacterial cells were cultured at 37°C in the appropriate culture media with shaking (180 rpm). Luria-Bertani broth (LB) (244620; BD Difco) was used for E. coli ATCC 25922, ASEC strains, and B. subtilis KCTC 2217. Nutrient broth (NB) (234000; BD Difco) was used for P. aeruginosa ATCC 27853, S. Typhimurium KCTC 1926, and A. baumannii KCTC 2508. Tryptic soy broth (TSB) (211825; BD Difco) was used for S. aureus ATCC 25923. Finally, brain heart infusion (BHI) (237500; BD Difco) was used for L. monocytogenes KCTC 3710. The antimicrobial activity of each peptide was determined using microdilution assays. To this end, 2-fold serial dilution series of each peptide (from 1 to 64 μM) were added to duplicate media with 10 mM sodium phosphate buffer (pH 7.4). Fifty microliters of the peptide and antibiotic solution was added to each well of a 96-well plate (32096, surface nontreatment; SPL Life Sciences). Then, 50 μL of 2 × 10^5 CFU mL^−1 of bacteria was added to each well, and the samples were incubated for 18 to 24 h without shaking at 37°C.

[6] = test system: MDR E. coli ASEC 17; test: microbe, parasite or virus in culture; assay type: cell-based, Escherichia coli; conditions: microdilution, LB, 18 to 24 h, 37°C, three independent experiments
Method: as §1

[7] = test system: MDR E. coli ASEC 6; test: microbe, parasite or virus in culture; assay type: cell-based, Escherichia coli; conditions: microdilution, LB, 18 to 24 h, 37°C, three independent experiments
Method: as §1

[8] = test system: MDR E. coli ASEC 18; test: microbe, parasite or virus in culture; assay type: cell-based, Escherichia coli; conditions: microdilution, LB, 18 to 24 h, 37°C, three independent experiments
Method: as §1

[9] = test system: MDR E. coli ASEC 12; test: microbe, parasite or virus in culture; assay type: cell-based, Escherichia coli; conditions: microdilution, LB, 18 to 24 h, 37°C, three independent experiments
Method: as §1

[10] = test system: MDR E. coli ASEC 15; test: microbe, parasite or virus in culture; assay type: cell-based, Escherichia coli; conditions: microdilution, LB, 18 to 24 h, 37°C, three independent experiments
Method: as §1

[11] = test system: MDR E. coli ASEC 4; test: microbe, parasite or virus in culture; assay type: cell-based, Escherichia coli; conditions: microdilution, LB, 18 to 24 h, 37°C, three independent experiments
Method: as §1

[12] = test system: MDR E. coli ASEC 1; test: microbe, parasite or virus in culture; assay type: cell-based, Escherichia coli; conditions: microdilution, LB, 18 to 24 h, 37°C, three independent experiments
Method: as §1

[13] = test system: MDR E. coli ASEC 8; test: microbe, parasite or virus in culture; assay type: cell-based, Escherichia coli; conditions: microdilution, LB, 18 to 24 h, 37°C, three independent experiments
Method: as §1

[14] = test system: MDR E. coli ASEC 5; test: microbe, parasite or virus in culture; assay type: cell-based, Escherichia coli; conditions: microdilution, LB, 18 to 24 h, 37°C, three independent experiments
Method: as §1

[15] = test system: MDR E. coli ASEC 9; test: microbe, parasite or virus in culture; assay type: cell-based, Escherichia coli; conditions: microdilution, LB, 18 to 24 h, 37°C, three independent experiments
Method: as §1

[16] = test system: MDR E. coli ASEC 7; test: microbe, parasite or virus in culture; assay type: cell-based, Escherichia coli; conditions: microdilution, LB, 18 to 24 h, 37°C, three independent experiments
Method: as §1

[17] = test system: MDR E. coli ASEC 16; test: microbe, parasite or virus in culture; assay type: cell-based, Escherichia coli; conditions: microdilution, LB, 18 to 24 h, 37°C, three independent experiments
Method: as §1

[18] = test system: MDR E. coli ASEC 13; test: microbe, parasite or virus in culture; assay type: cell-based, Escherichia coli; conditions: microdilution, LB, 18 to 24 h, 37°C, three independent experiments
Method: as §1

[19] = test system: MDR E. coli ASEC 14; test: microbe, parasite or virus in culture; assay type: cell-based, Escherichia coli; conditions: microdilution, LB, 18 to 24 h, 37°C, three independent experiments
Method: as §1

[20] = test system: MDR E. coli ASEC 2; test: microbe, parasite or virus in culture; assay type: cell-based, Escherichia coli; conditions: microdilution, LB, 18 to 24 h, 37°C, three independent experiments
Method: as §1

[21] = test system: MDR E. coli ASEC 19; test: microbe, parasite or virus in culture; assay type: cell-based, Escherichia coli; conditions: microdilution, LB, 18 to 24 h, 37°C, three independent experiments
Method: as §1

[22] = test system: MDR E. coli ASEC 10; test: microbe, parasite or virus in culture; assay type: cell-based, Escherichia coli; conditions: microdilution, LB, 18 to 24 h, 37°C, three independent experiments
Method: as §1

[23] = test system: MDR E. coli ASEC 3; test: microbe, parasite or virus in culture; assay type: cell-based, Escherichia coli; conditions: microdilution, LB, 18 to 24 h, 37°C, three independent experiments
Method: as §1

[24] = test system: E. coli ATCC 25922; test: microbe, parasite or virus in culture; assay type: cell-based, Escherichia coli; conditions: LB, 2 × 10^5 CFU mL^−1, 18 to 24 h, 37°C, three independent experiments
Method: as §1

[25] = test system: MDR E. coli ASEC 19; design: method as in Asan hospital; key to susceptibility category: S: susceptible; R: resistant; I: intermediate; conditions: ref Asan hospital, cited from earlier work; for MIC: ASEC 19 (AmpC), resistance information of clinical isolate; for susceptibility category: ASEC 19
[26] = test system: MDR E. coli ASEC 11; design: method as in Asan hospital; key to susceptibility category: S: susceptible; R: resistant; I: intermediate; conditions: ref Asan hospital, cited from earlier work; for MIC: ASEC 11 (ESBL), resistance information of clinical isolate; for susceptibility category: ASEC 11
[27] = test system: MDR E. coli ASEC 8; design: method as in Asan hospital; key to susceptibility category: S: susceptible; R: resistant; I: intermediate; conditions: ref Asan hospital, cited from earlier work; for MIC: ASEC 8 (ESBL), resistance information of clinical isolate; for susceptibility category: ASEC 8
[28] = Escherichia coli, read-out: MIC
[29] = Escherichia coli, ATCC25922, microdilution, read-out: MIC

MIC [5, 28]: > 32 µM
MIC [6, 28]: > 32 µM
MIC [7, 28]: > 32 µM
MIC [8, 28]: > 32 µM
MIC [9, 28]: > 32 µM
MIC [10, 28]: > 32 µM
MIC [11, 28]: > 32 µM
MIC [12, 28]: > 32 µM
MIC [13, 28]: > 32 µM
MIC [14, 28]: > 32 µM
MIC [15, 28]: > 32 µM
MIC [16, 28]: > 32 µM
MIC [17, 28]: > 32 µM
MIC [18, 28]: > 32 µM
MIC [19, 28]: > 32 µM
MIC [20, 28]: > 32 µM
MIC [21, 28]: > 32 µM
MIC [22, 28]: > 32 µM
MIC [23, 28]: > 32 µM
MIC [24, 29]: < 1 µM
Compound: CO/N=C(\C(=O)N[C@@H]1C(=O)N2C(C(=O)O)=C(COC(C)=O)CS[C@H]12)c1csc(N)n1 [Cefotaxime]
MIC [1]: > 32 µg/mL
susceptibility category [1]: R
MIC [2]: > 32 µg/mL
susceptibility category [2]: R
MIC [3]: > 32 µg/mL
susceptibility category [3]: R
MIC [4]: > 32 µg/mL
susceptibility category [4]: R
MIC [25]: > 32 µg/mL
susceptibility category [25]: R
MIC [26]: > 32 µg/mL
susceptibility category [26]: R
MIC [27]: > 32 µg/mL
susceptibility category [27]: R

Compound: CC(C)(O/N=C(\C(=O)N[C@@H]1C(=O)N2C(C(=O)[O-])=C(C[n+]3ccccc3)CS[C@H]12)c1csc(N)n1)C(=O)O [Ceftazidime]
MIC [1]: > 16 µg/mL
susceptibility category [1]: R
MIC [2]: 16 µg/mL (≈ 29.3 µM)
susceptibility category [2]: R
MIC [3]: > 16 µg/mL
susceptibility category [3]: R
MIC [4]: > 16 µg/mL
susceptibility category [4]: R
MIC [5, 28]: > 32 µM
MIC [6, 28]: > 32 µM
MIC [7, 28]: > 32 µM
MIC [8, 28]: > 32 µM
MIC [9, 28]: > 32 µM
MIC [10, 28]: > 32 µM
MIC [11, 28]: > 32 µM
MIC [12, 28]: > 32 µM
MIC [13, 28]: > 32 µM
MIC [14, 28]: > 32 µM
MIC [15, 28]: > 32 µM
MIC [16, 28]: 16 µM (≈ 8.75 µg/mL)
MIC [17, 28]: > 32 µM
MIC [18, 28]: > 32 µM
MIC [19, 28]: > 32 µM
MIC [20, 28]: > 32 µM
MIC [21, 28]: > 32 µM
MIC [22, 28]: 32 µM (≈ 17.5 µg/mL)
MIC [23, 28]: > 32 µM
MIC [24, 29]: < 1 µM
MIC [25]: > 16 µg/mL
susceptibility category [25]: R
MIC [26]: > 16 µg/mL
susceptibility category [26]: R
MIC [27]: > 16 µg/mL
susceptibility category [27]: R

Compound: C[C@@H](O)[C@H]1C(=O)N2C(C(=O)O)=C(S[C@@H]3CN[C@H](C(=O)N(C)C)C3)[C@H](C)[C@H]12 [Meropenem]
MIC [1]: > 8 µg/mL
susceptibility category [1]: R
MIC [2]: <= 1 μg mL-1
susceptibility category [2]: S
MIC [3]: 8 µg/mL (≈ 20.9 µM)
susceptibility category [3]: R
MIC [4]: > 8 µg/mL
susceptibility category [4]: R
MIC [5, 28]: < 1 µM
MIC [6, 28]: < 1 µM
MIC [7, 28]: 16 µM (≈ 6.14 µg/mL)
MIC [8, 28]: < 1 µM
MIC [9, 28]: 16 µM (≈ 6.14 µg/mL)
MIC [10, 28]: < 1 µM
MIC [11, 28]: > 32 µM
MIC [12, 28]: 1 µM (≈ 0.383 µg/mL)
MIC [13, 28]: < 1 µM
MIC [14, 28]: 8 µM (≈ 3.07 µg/mL)
MIC [15, 28]: < 1 µM
MIC [16, 28]: < 1 µM
MIC [17, 28]: < 1 µM
MIC [18, 28]: 2 µM (≈ 0.767 µg/mL)
MIC [19, 28]: 8 µM (≈ 3.07 µg/mL)
MIC [20, 28]: > 32 µM
MIC [21, 28]: 8 µM (≈ 3.07 µg/mL)
MIC [22, 28]: < 1 µM
MIC [23, 28]: > 32 µM
MIC [24, 29]: < 1 µM
MIC [25]: <= 1 μg mL-1
susceptibility category [25]: S
MIC [26]: <= 1 μg mL-1
susceptibility category [26]: S
MIC [27]: <= 1 μg mL-1
susceptibility category [27]: S

Compound: FKFLARTGKFL-NH2 [PN5]
MIC [5]: 2 (2.65) μM
MIC [6]: 8 (10.61) μM
MIC [7]: 4 (5.30) μM
MIC [8]: 16 (21.22) μM
MIC [9]: 2 (2.65) μM
MIC [10]: 16 (21.22) μM
MIC [11]: 4 (5.30) μM
MIC [12]: 8 (10.61) μM
MIC [13]: 4 (5.30) μM
MIC [14]: 8 (10.61) μM
MIC [15]: 16 (21.22) μM
MIC [16]: 8 (10.61) μM
MIC [17]: 4 (5.30) μM
MIC [18]: 8 (10.61) μM
MIC [19]: 2 (2.65) μM
MIC [20]: 2 (2.65) μM
MIC [21]: 8 (10.61) μM
MIC [22]: 8 (10.61) μM
MIC [23]: 8 (10.61) μM
MIC ([24]; microdilution): 16 (21.22) μM
